Laboratory results as given in US20160009725A1, “PYRROLO- AND PYRAZOLO-TRIAZOLODIAZEPINES AS BET-PROTEIN INHIBITORS FOR TREATING HYPERPROLIFERATIVE DISEASES” (BAYER PHARMA AKTIENGESELLSCHAFT, priority 2013, published 2016).
Read-outs that look alike come from different tables or passages of the source.

Columns and labels:
BRD4 (BD1) = target: T1, BRD4 (BD1) (Homo sapiens, UniProt O60885); assay: Binding assay BRD4/acetylated peptide H4 (TR-FRET protein-protein interaction assay)
T1 construct: N-terminally His6-tagged BRD4 (BD1) (amino acids 67-152, longer constructs also being possible, preferably amino acids 44-168); made in house; host or cells: E. coli
Text: To assess the BRD4 binding strength of the substances described in this application, the ability thereof to inhibit the interaction between BRD4 (BD1) and acetylated histone H4 in a dose-dependent manner was quantified. For this purpose, a time-resolved fluorescence resonance energy transfer (TR-FRET) assay was used, which measures the binding between N-terminally His6-tagged BRD4 (BD1) (amino acids 67-152, longer constructs also being possible, preferably amino acids 44-168) and a synthetic acetylated histone H4 (Ac-H4) peptide with sequence […]-biotin. The recombinant BRD4 protein produced in-house according to Filippakopoulos et al., Nature, 2010, 468:1119-1123 was expressed in E. coli and purified by means of (Ni-NTA) affinity and (Sephadex G-75) size exclusion chromatography. The Ac-H4 peptide can be purchased, for example, from Biosyntan (Berlin, Germany). […] For this purpose, 100-fold concentrated solutions in DMSO were prepared by serial dilutions (1:3.4) of a 2 mM stock solution into a clear, 384-well microtitre plate (Greiner Bio-One, Frickenhausen, Germany). From this, 50 nl were transferred into a black test plate (Greiner Bio-One, Frickenhausen, Germany). […] This was followed by a 10-minute incubation step at 22° C. for the pre-equilibration of putative complexes between BRD4 and the substances. […] The mixture was then incubated in the dark at 22° C. for one hour and then at 4° C. for at least 3 hours and for no longer than overnight. The formation of BRD4/Ac-H4 complexes was determined by the measurement of the resonance energy transfer from the streptavidin-Eu cryptate to the anti-6His-XL665 antibody present in the reaction. For this purpose, the fluorescence emission was measured at 620 nm and 665 nm after excitation at 330-350 nm in a TR-FRET measuring instrument, for example a Rubystar or Pherastar (both from BMG Lab Technologies, Offenburg, Germany) or a Viewlux (Perkin-Elmer). The ratio of the emissions at 665 nm and at […] was taken as an indicator of the amount of BRD4/Ac-H4 complexes formed. The data (ratios) obtained were normalized, with 0% inhibition corresponding to the mean from the measurements for a set of controls (typically 32 data points) in which all the reagents were present. In these, in place of test substances, 50 nl of DMSO (100%) were used Inhibition of 100% corresponded to the mean from the measurements for a set of controls (typically 32 data points) in which all the reagents except BRD4 were present. The IC50 was determined by regression analysis based on a 4-parameter equation (minimum, maximum, IC50, Hill; […])).

MOLM-13 cells = assay: Cell proliferation assay (alamarBlue), MOLM-13; type: cell-based; conditions: Homo sapiens, acute myeloid leukaemia, 96 hours incubation
Protocol: (§1) In accordance with the invention, the ability of the substances to inhibit cell proliferation was determined Cell viability was determined by means of the alamarBlue® reagent (Invitrogen) in a Victor ×3 Multilabel Reader (Perkin Elmer). The excitation wavelength was 530 nm and the emission wavelength […].
The MOLM-13 cells (DSMZ, ACC 554) were sown at a concentration of 4000 cells/well in 100 μl of growth medium (RPMI1640, 10% FCS) on 96-well microtitre plates.
(§2) After overnight incubation at 37° C., the fluorescence values (CI values) were determined. Then the plates were treated with various substance dilutions (1E-5 M, 3E-6 M, 1E-6 M, 3E-7 M, 1E-7 M, 3E-8 M, 1E-8 M) and incubated at 37° C. over 96 (MOLM-13, B16F10, MDA-MB-431 cells), 120 (MOLP-8 cells) or 168 (LAPC-4 cells) hours. Subsequently, the fluorescence values were determined (CO values). For the data analysis, the CI values were subtracted from the CO values and the results were compared between cells which had been treated with various dilutions of the substance or only with buffer solution. The IC50 values (substance concentration needed for 50% inhibition of cell proliferation) were calculated therefrom.
(§3) The substances were tested in the cell lines in Table 1, which represent the indications specified by way of example: […]

LAPC-4 cells = assay: Cell proliferation assay (alamarBlue), LAPC-4; type: cell-based; conditions: Homo sapiens, LAPC4, prostate cancer, 1 nM methyltrienolone, 168 hours incubation
Protocol: as §1
The LAPC-4 cells (ATCC, PTA-1441TM) were sown at a concentration of 4000 cells/well in 100 μl of growth medium (RPMI1640, 2 mM L-glutamine, 10% cFCS) on 96-well microtitre plates. One day later, the LAPC-4 cells were treated with 1 nM methyltrienolone and various substance dilutions.
as §2, §3

B16F10 cells = assay: Cell proliferation assay (alamarBlue), B16F10; type: cell-based; conditions: Mus musculus, B16-F10, melanoma (BRAF wild-type), 96 hours incubation
Protocol: as §1
The B16F10 cells (ATCC, CRL-6475) were sown at a concentration of 300-500 cells/well in 100 μl of growth medium (DMEM with phenol red, 10% FCS) on 96-well microtitre plates.
as §2, §3

MOLP-8 cells = assay: Cell proliferation assay (alamarBlue), MOLP-8; type: cell-based; conditions: Homo sapiens, multiple myeloma, 120 hours incubation
Protocol: as §1
The MOLP-8 cells (DSMZ, ACC 569) were sown at a concentration of 4000 cells/well in 100 μl of growth medium (RPMI1640, 20% FCS) on 96-well microtitre plates.
as §2, §3

MDA-MB-231 cells = assay: Cell proliferation assay (alamarBlue), MDA-MB-231; type: cell-based; conditions: Homo sapiens, mammary carcinoma, 96 hours incubation, read-out: Breast MDA-MB-231 IC50
Protocol: as §1
The MDA-MB-231 cells (DSMZ, ACC 732) were sown at a concentration of 4000 cells/well in 100 μl of growth medium (DMEM/Ham's F12 medium, 10% FCS) on 96-well microtitre plates.
as §2, §3

[1] = BRD4 (BD1) / acetylated histone H4 peptide, TR-FRET, read-out: IC50 (BRD4)

## Cc1c2c(cn1C)-n1c(C)nnc1[C@H](CC(=O)N1C3CCC1CC(=O)C3)N=C2c1ccc(Cl)cc1 (single isomer, unassigned; (-)) [Example 6]
BRD4 (BD1); [1]
  IC50: 240 nM
MOLM-13 cells
  IC50: 1240 nM
LAPC-4 cells
  IC50: 520 nM
B16F10 cells
  IC50: 890 nM

## Cc1c2c(cn1C)-n1c(C)nnc1[C@H](CC(=O)N1CC3CCC(C1)O3)N=C2c1ccc(Cl)cc1 (single isomer, unassigned; (-)) [Example 8]
BRD4 (BD1); [1]
  IC50: 190 nM
MOLM-13 cells
  IC50: 750 nM
LAPC-4 cells
  IC50: 540 nM

## Cc1c2c(cn1C)-n1c(C)nnc1[C@H](CC(=O)N1CC3CCC(C3)C1)N=C2c1ccc(Cl)cc1 (single isomer, unassigned; (-)) [Example 10]
BRD4 (BD1); [1]
  IC50: 310 nM
MOLM-13 cells
  IC50: 1460 nM

## Cc1c2c(cn1C)-n1c(C)nnc1[C@H](CC(=O)N1CC3CCC1CC3)N=C2c1ccc(Cl)cc1 (single isomer, unassigned; (-)) [Example 14]
BRD4 (BD1); [1]
  IC50: 100 nM
MOLM-13 cells
  IC50: 690 nM
LAPC-4 cells
  IC50: 520 nM

## Cc1c2c(cn1C)-n1c(C)nnc1[C@H](CC(=O)N1CC3CC1CO3)N=C2c1ccc(Cl)cc1 (stereo in doubt) [Example 7, (−)-2-[(4S)-6-(4-Chlorophenyl)-1,7,8-trimethyl-4,8-dihydropyrrolo[3,4-f][1,2,4]triazolo[4,3-a][1,4]diazepin-4-yl]-1-{(1S,4S)-2-oxa-5-azabicyclo[2.2.1]hept-5-yl}ethan-1-one]
BRD4 (BD1); [1]
  IC50: 210 nM

## Cc1c2c(cn1C)-n1c(C)nnc1[C@H](CC(=O)N1CC3(COC3)C1)N=C2c1ccc(Cl)cc1 [Example 1, (−)-2-[(4S)-6-(4-Chlorophenyl)-1,7,8-trimethyl-4,8-dihydropyrrolo[3,4-f][1,2,4]triazolo-[4,3-a][1,4]diazepin-4-yl]-1-(2-oxa-6-azaspiro[3.3]hept-6-yl)ethan-1-one]
BRD4 (BD1); [1]
  IC50: 150 nM
MOLM-13 cells
  IC50: 710 nM
LAPC-4 cells
  IC50: 680 nM
B16F10 cells
  IC50: 1140 nM

## Cc1c2c(cn1C)-n1c(C)nnc1[C@H](CC(=O)N1CC3(COC3)C1)N=C2c1ccccc1 [Example 2, 2-(1,7,8-Trimethyl-6-phenyl-4,8-dihydropyrrolo[3,4-f][1,2,4]triazolo[4,3-a][1,4]diazepin-4-yl)-1-(2-oxa-6-azaspiro[3.3]hept-6-yl)ethan-1-one]
BRD4 (BD1); [1]
  IC50: 140 nM
MOLM-13 cells
  IC50: 900 nM
LAPC-4 cells
  IC50: 920 nM
B16F10 cells
  IC50: 2010 nM

## Cc1c2c(cn1C)-n1c(C)nnc1[C@H](CC(=O)N1CC3(CCS3(=O)=O)C1)N=C2c1ccc(Cl)cc1 [Example 3, (−)-2-[(4S)-6-(4-Chlorophenyl)-1,7,8-trimethyl-4,8-dihydropyrrolo[3,4-f][1,2,4]triazolo[4,3-a][1,4]diazepin-4-yl]-1-(1,1-dioxo-1λ^6-1-thia-6-azaspiro[3.3]hept-6-yl)ethan-1-one]
BRD4 (BD1)
  IC50: 20 nM
MOLP-8 cells
  IC50: 140 nM
MDA-MB-231 cells
  IC50: 300 nM
MOLM-13 cells
  IC50: 110 nM
LAPC-4 cells
  IC50: 110 nM
B16F10 cells
  IC50: 160 nM

## Cc1nnc2n1-c1cn(C)nc1C(c1ccc(Cl)cc1)=N[C@H]2CC(=O)N1CC2(COC2)C1 [Example 4, 2-[(4S)-6-(4-Chlorophenyl)-1,8-dimethyl-4,8-dihydropyrazolo[3,4-f][1,2,4]triazolo[4,3-a][1,4]diazepin-4-yl]-1-(2-oxa-6-azaspiro[3.3]hept-6-yl)ethan-1-one]
BRD4 (BD1); [1]
  IC50: 460 nM

## Cc1c2c(cn1C)-n1c(C)nnc1[C@H](CC(=O)N1CCOC3(CCCCC3)C1)N=C2c1ccc(Cl)cc1 [Example 9, (−)-2-[(4S)-6-(4-Chlorophenyl)-1,7,8-trimethyl-4,8-dihydropyrrolo[3,4-f][1,2,4]triazolo[4,3-a][1,4]diazepin-4-yl]-1-(1-oxa-4-azaspiro[5.5]undec-4-yl)ethanone]
BRD4 (BD1); [1]
  IC50: 80 nM
MOLM-13 cells
  IC50: 1050 nM
LAPC-4 cells
  IC50: 1070 nM

## Cc1c2c(cn1C)-n1c(C)nnc1[C@H](CC(=O)N1CC3(CCOCC3)C1)N=C2c1ccc(Cl)cc1 [Example 11, (−)-2-[(4S)-6-(4-Chlorophenyl)-1,7,8-trimethyl-4,8-dihydropyrrolo[3,4-f][1,2,4]triazolo[4,3-a][1,4]diazepin-4-yl]-1-(7-oxa-2-azaspiro[3.5]non-2-yl)ethanone]
BRD4 (BD1); [1]
  IC50: 690 nM

## Cc1c2c(cn1C)-n1c(C)nnc1[C@H](CC(=O)N1CCC3(CC1)COC3)N=C2c1ccc(Cl)cc1 [Example 12, (−)-2-[(4S)-6-(4-Chlorophenyl)-1,7,8-trimethyl-4,8-dihydropyrrolo[3,4-f][1,2,4]triazolo[4,3-a][1,4]diazepin-4-yl]-1-(2-oxa-7-azaspiro[3.5]non-7-yl)ethanone]
BRD4 (BD1); [1]
  IC50: 120 nM
MOLM-13 cells
  IC50: 480 nM

## Cc1c2c(cn1C)-n1c(C)nnc1[C@H](CC(=O)N1CCC3(COC3)C1)N=C2c1ccc(Cl)cc1 [Example 13, (−)-2-[(4S)-6-(4-Chlorophenyl)-1,7,8-trimethyl-4,8-dihydropyrrolo[3,4-f][1,2,4]triazolo[4,3-a][1,4]diazepin-4-yl]-1-(2-oxa-6-azaspiro[3.4]oct-6-yl)ethanone]
BRD4 (BD1); [1]
  IC50: 70 nM
MOLM-13 cells
  IC50: 410 nM
LAPC-4 cells
  IC50: 230 nM

## Cc1nnc2n1-c1cn(C)nc1C(c1ccc(Cl)cc1)=N[C@H]2CC(=O)N1CC2(CCS2(=O)=O)C1 [Example 15, 2-[(4S)-6-(4-Chlorophenyl)-1,8-dimethyl-4,8-dihydropyrazolo[3,4-f][1,2,4]triazolo[4,3-a][1,4]diazepin-4-yl]-1-(1,1-dioxido-1-thia-6-azaspiro[3.3]hept-6-yl)ethanone]
BRD4 (BD1); [1]
  IC50: 800 nM
MOLM-13 cells
  IC50: 2700 nM
